Laboratory results published in US8470763B2, “Alpha-amino-N-substituted amides, pharmaceutical composition containing them and uses thereof” (Shanghai Institute of Materia Medica Chinese Academy of …, priority 2007, dated 2013).

Key:
Assay type in all cases: cell-based
[1] = tested on: lung adenocarcinoma cells A549; assay: MTT assay, A549 cells; settings: Homo sapiens, 72 h
Experimental: The adhered MDA-MB-4355 cells in logarithmic growth phase, were digested by 0.05% trypsogen, counted and formulated into a cell suspension with a medium. After counted, the suspension was inoculated on a 96-well plate with 3000 cells and 100 μl medium per well. The inoculated 96-well plate was placed overnight in an incubator at 37 with 5% CO2 to allow the cells to adhere to the wall. On the next day, the administration of the drugs started. Before the administration, into some of the control wells, each was added 20 μl of the MTT solution (5 mg/ml) without removing the medium therein. After incubated for 3 h, the absorption at A550/690 was recorded as the initial cell concentration. For the drug wells, each was added into 100 μl of medium containing 2 μl of compound solution. For the control wells which use DMSO as background control, each was also added into 100 μl of medium containing 2 μl of DMSO. In addition, each experiment was carried out with adriamycin as the positive control. Subsequently, the 96-well plate was incubated in an incubator at 37 with 5% CO2 for 72 h. each compound was tested in triplicate wells (6 μl of compound solution was put into a sterilized eppendorf centrifuge tube, then 300 μl of medium was added and mixed well, and the mixture was distributed into 3 wells respectively), and at six concentrations which form a gradient. 3 days (72 h) later, 40 μl of MTT solution (5 mg/ml) was put into each well directly (without sucking off the medium therein), and the plate was incubated in the incubator for 3 h and then taken out. The liquid in each well was sucked off, and then 100 μl of DMSO was put into each well to dissolve the crystal completely with slight shake. The absorbance of the solution in each well was determined at 550/690 nm on an ELISA Reader as the cell density after treated with the compound. The growth inhibition of compound against breast cancer cells MDA-MB-435S was represented by the cell survival rate, and IC50 was determined from the profile of cell survival rate vs compound concentration. The calculating formula was as follows: cell survival rate=[(cells+compound)A550/690/(cells+compound vector DMSO)A550/690]×100%
MDA-MB-435S: human breast cancer cells; HCT116: colon cancer cells; A549: lung adenocarcinoma cells; Hela: uterine cervix cancer cells.
The tests were performed in the same manner as that of experimental example 1, except that for Hela cells, after counted, each well was seeded with 1000 cells and 100 μl of medium on a 96-well plate.

[2] = tested on: SGC-7901 (Gastric Cancer); assay: SRB assay, SGC-7901; settings: Homo sapiens, 72 h, read-out: IC50 (μM) (mean ± SD)
Experimental: (§1) Experimental method: The antineoplasmic activities in vitro of the compounds were determined by SRB assay. The detailed procedure was as follows. The cells in the logarithmic growth phase were inoculated on a 96-well microculture plate with a suitable density (100 μl/well), and allowed to attach overnight, followed by addition of the compound at different concentrations to be treated for 72 h. For each concentration, the test was carried out in triplicate wells, and included control wells containing the aqueous medium of normal saline and a blank well containing all medium without cells for zeroing. After cultured overnight, the cells were treated with the compound at different concentrations for 72 h. After the treatment, the culture medium was removed, and the cells were fixed with 10% (wt/vol) trichloroacetic acid (100 μL/well) at 4° C. for 1 h. The cells were then washed with distilled water for 5 times, and died at room temperature, followed by addition of a SRB solution (4 mg/mL, dissolved in 1% glacial acetic acid) at 100 μL/well. The cells were incubated and stained at room temperature for 15 min, then washed with 1% glacial acetic acid for 5 times to remove the uncombined SRB, and died at room temperature. 100 μL of 10 mM Tris solution was added in each well, and the Optical Density (OD) were measured at a wavelength of 560 nm on a VERSMax ELISA Reader (Molecule Devices). The growth inhibition of the compound against tumor cells was calculated according to the following equation: Growth inhibition (%)=(ODcontrol−ODtreated)/ODcontrol×100%.
(§2) IC50 (the concentration of the sample compound that is required for 50% inhibition of cell growth) was calculated by using the Logit method based on the measurement, and each test was repeated for 3 times to calculate the mean value and standard deviation.

[3] = tested on: HCT-116 (Colon Cancer); assay: SRB assay, HCT-116; settings: Homo sapiens, 72 h, read-out: IC50 (μM) (mean ± SD)
Experimental: as §1, §2

[4] = tested on: BEL-7402 (Liver Cancer); assay: SRB assay, BEL-7402; settings: Homo sapiens, 72 h, read-out: IC50 (μM) (mean ± SD)
Experimental: as §1, §2

[5] = tested on: Zip177 (Liver Cancer); assay: SRB assay, Zip177; settings: 72 h, read-out: IC50 (μM) (mean ± SD)
Experimental: as §1, §2

[6] = tested on: HepG2 (Liver Cancer); assay: SRB assay, HepG2; settings: Homo sapiens, 72 h, read-out: IC50 (μM) (mean ± SD)
Experimental: as §1, §2

[7] = tested on: 7404 (Liver Cancer); assay: SRB assay, 7404; settings: 72 h, read-out: IC50 (μM) (mean ± SD)
Experimental: as §1, §2

[8] = tested on: MDA-MB-435 (Breast Cancer); assay: SRB assay, MDA-MB-435; settings: Homo sapiens, 72 h, read-out: IC50 (μM) (mean ± SD)
Experimental: as §1, §2

`CO[C@@H](C(=O)N[C@@H](C)C(=O)NCCOC(=O)C12CC3CC(CC(C3)C1)C2)[C@H](O)[C@@H](O)[C@H](O)/C=C/C(C)(C)C` [Compound L538] gave an IC50 [1] of 133 ± 25 nM, an IC50 [2] of 3.92 ± 1.78 µM and an IC50 [3] of 0.24 ± 0.1 µM. The IC50 [4] was 0.37 ± 0.27 µM, the IC50 [5] was 0.37 ± 0.06 µM and the IC50 [6] was 0.45 ± 0.07 µM. The IC50 [7] was greater than 20 µM and the IC50 [8] was 0.09 ± 0.01 µM.
